The values that follow come from patent US8153683B2, “Methods of treatment using a prodrug of an excitatory amino acid” (Eli Lilly and Company, priority 2002, dated 2012).

Each structure is given as a SMILES string.

The series can be described thus: In Vivo Exposure as Measured by Rat Plasma Concentration. Particulars: Fischer 344 male rats, sum of the concentrations at 0.5 and 1 hour or at 1 and 3 hour, LC/MS/MS. The procedure: To study the in vivo exposure of compounds of Formula II following oral dosing of compounds of Formula I in comparison to compounds of Formula II, studies measuring the plasma concentrations of the respective compound of Formula II in rats are performed. Mature Fischer 344 male rats (190-270 gram) are obtained from Harlan Sprague-Dawley, Cumberland, Ind., USA, and acclimated in the study housing for 3 days. […] Blood samples are collected through orbital sinus or cardiac puncture (last time point) at 0.5 and 1 hour or, alternatively, at 1 and 3 hours. Plasma samples are stored at −20° C. in the presence of phenylmethylsulfonyl fluoride, a protease inhibitor, prior to analysis. Plasma samples and internal standard compounds are pretreated by solid phase extraction (SAX support, methanol/water/dilute acetic acid).
As shown in Tables 1A and 1B below, the plasma concentrations (ng/ml) of the respective compound of Formula II for each test compound are determined by LC/MS/MS and are presented as a sum of the concentrations at the 0.5 and 1 hour or, alternatively, at the 1 and 3 hour sample time points.

As for `N[C@@]1(C(=O)O)CS(=O)(=O)[C@H]2[C@H](C(=O)O)[C@H]21` [Non-prodrug form of Example 1, (1R,4S,5S,6S)-4-Amino-2,2-dioxo-2λ^6-thia-bicyclo[3.1.0]hexane-4,6-dicarboxylic acid], the “Rat Exposure (ng/ml of (1R,4S,5S,6S)-4-(2′S-Aminopropionyl)amino-]-2,2-dioxo-2λ^6-thia-bicyclo[3.1.0.]hexane-4,6-dicarboxylic acid hydrochloride)” value (following 5 mg/kg p.o.) is reported as 1521 ng/ml (following 5 mg/kg p.o.). Take `C[C@H](N)C(=O)N[C@@]1(C(=O)O)C[C@@H](F)[C@H]2[C@H](C(=O)O)[C@H]21.Cl` [Example 14, (1R,2S,4R,5R,6R)-2-(2′S-Amino-propionyl)amino-4-fluorobicyclo[3.1.0]hexane-2,6-dicarboxylic acid hydrochloride]: the “Rat Exposure (ng/ml of (1R,2S,4R,5R,6R)-2-(2′S-Aminopropionyl)amino-4-fluorobicyclo[3.1.0]hexane-2,6-dicarboxylic acid hydrochloride)” value (following 5 mg/kg p.o.) was 5271 ng/ml (following 5 mg/kg p.o.). `N[C@@]1(C(=O)O)C[C@@H](F)[C@H]2[C@H](C(=O)O)[C@H]21` [Non-prodrug form of Example 14, 1R,2S,4R,5R,6R-2-amino-4-fluorobicyclo[3.1.0]hexane-2,6-dicarboxylic acid]: the “Rat Exposure (ng/ml of (1R,2S,4R,5R,6R)-2-(2′S-Aminopropionyl)amino-4-fluorobicyclo[3.1.0]hexane-2,6-dicarboxylic acid hydrochloride)” value by setting is: (following 5 mg/kg p.o.) 1162 ng/ml (following 5 mg/kg p.o.); (following 10 mg/kg p.o.) 1342 ng/ml (following 10 mg/kg p.o.).
